Values quoted from earlier work in patent US10858575B2, “Temperature-stable corrosion inhibitor compositions and methods of use” (ChampionX USA Inc., priority 2017, dated 2020).

details: at 20° C.

For `CCCCOCCOCCO` [diethylene glycol butyl ether], which vapor pressure is on record?
Its vapor pressure is 30 mm Hg.

For `CCOCCOCCO` [diethylene glycol ethyl ether], which vapor pressure is on record?
The vapor pressure was 0.12 mm Hg.

For `CCCCCCOCCOCCO` [diethylene glycol hexyl ether], which vapor pressure is on record?
The vapor pressure was 0.001 mm Hg.

For `COCCOCCO` [diethylene glycol methyl ether], which vapor pressure is on record?
Its vapor pressure is 0.2 mm Hg.

With `COC(C)COC(C)CO` (centres unmarked) [dipropylene glycol methyl ether] as the molecule, how does the vapor pressure read?
The vapor pressure was 0.28 mm Hg.

Which vapor pressure does the source give for `CCCOC(C)COC(C)CO` (centres unmarked) [dipropylene glycol propyl ether] here?
Its vapor pressure is 0.08 mm Hg.

With `CCCCOCCO` [ethylene glycol butyl ether] as the molecule, how does the vapor pressure read?
Its vapor pressure is 10 mm Hg.

With `CCOCCO` [ethylene glycol ethyl ether] as the molecule, how does the vapor pressure read?
Its vapor pressure is 3.8 mm Hg.

For `CCCCCCOCCO` [ethylene glycol hexyl ether], which vapor pressure is on record?
Its vapor pressure is 0.05 mm Hg.

Which vapor pressure does the source give for `CCCCOCC(C)O` (centres unmarked) [propylene glycol butyl ether] here?
Its vapor pressure is 0.85 mm Hg.

Which vapor pressure does the source give for `COCC(C)O` (centres unmarked) [propylene glycol methyl ether] here?
Its vapor pressure is 8.7 mm Hg.

For `CCCOCC(C)O` (centres unmarked) [propylene glycol propyl ether], which vapor pressure is on record?
Its vapor pressure is 4.5 mm Hg.

Which vapor pressure does the source give for `CCCCOC(C)COC(C)COC(C)CO` (centres unmarked) [tripropylene glycol butyl ether] here?
Its vapor pressure is 0.002 mm Hg.

details: octanol/water

For `O=C1CCCO1`, which LogP is on record?
The LogP was −0.57.
